The record followed here is patent US20240199558A1, “2,4,6-TRISUBSTITUTED 1,3,5-TRIAZINES AS MODULATORS OF CX3CR1” (ASTRAZENECA AB, priority 2022, published 2024).

Chain of CX3CR1 (P49238 whole entry): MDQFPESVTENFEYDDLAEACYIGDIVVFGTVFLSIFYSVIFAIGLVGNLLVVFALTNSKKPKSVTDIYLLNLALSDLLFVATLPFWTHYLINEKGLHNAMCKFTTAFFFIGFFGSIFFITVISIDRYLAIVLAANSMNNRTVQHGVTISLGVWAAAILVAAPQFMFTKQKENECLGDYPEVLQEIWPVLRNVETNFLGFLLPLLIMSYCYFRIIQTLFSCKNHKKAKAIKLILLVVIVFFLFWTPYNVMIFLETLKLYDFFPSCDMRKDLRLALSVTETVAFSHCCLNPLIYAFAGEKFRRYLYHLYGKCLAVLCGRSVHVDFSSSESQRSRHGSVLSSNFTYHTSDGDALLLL

This experiment has as its target CX3CR1 (Homo sapiens (Human), UniProt P49238). Nature of the experiment: hCX3CR1 [3H]-AZD8797 competitive binding assay (filter). Conditions: CHO-hCX3CR1 membranes, 2 nM [3H]-AZD8797. The procedure, abridged: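 Filtration radioligand displacement assay: competitor titrations compete with 2 nM [3H]-AZD8797 for membranes from CHO cells expressing hCX3CR1 (9 μg/well). Incubation was 2 h at room temperature in HEPES pH 7.4 with MgCl2, CaCl2, 0.5% BSA and 1% DMSO. Filters were washed with ice-cold high-salt (500 mM NaCl) buffer, and retained radioactivity was scintillation-counted.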
As to `CC(C)C[C@H](CO)Nc1nc(CC(C)c2cc(O)c3c(c2)CCCC3)nc(NS(C)(=O)=O)n1` (some centres unmarked) [Example 104], the IC50 (usually the point on the concentration scale where inhibition reaches its midpoint) stood at 38 nM.
Next, `CC(C)C[C@H](CO)Nc1nc(CC(C)c2cccc(C3COC3)c2)nc(NS(C)(=O)=O)n1` (stereo partly drawn) [Example 105, N-(4-(((R)-1-Hydroxy-4-methylpentan-2-yl)amino)-6-(2-(3-(oxetan-3-yl)phenyl)propyl)-1,3,5-triazin-2-yl)methanesulfonamide]: 123 nM; `Cc1c2ccc(C(C)Cc3nc(N[C@@H](CO)CC(C)C)nc(NS(C)(=O)=O)n3)cc2nn1C` (stereo partly drawn) [Example 106, N-(4-(2-(2,3-Dimethyl-2H-indazol-6-yl)propyl)-6-(((R)-1-hydroxy-4-methylpentan-2-yl)amino)-1,3,5-triazin-2-yl)methanesulfonamide]: 24 nM.
`CC(C)C[C@H](CO)Nc1nc(CC(C)c2cc(Cl)ccc2O)nc(NS(C)(=O)=O)n1` (stereo partly drawn) [Example 107, N-(4-(2-(5-Chloro-2-hydroxyphenyl)propyl)-6-(((R)-1-hydroxy-4-methylpentan-2-yl)amino)-1,3,5-triazin-2-yl)methanesulfonamide] yielded an IC50 of 113 nM.
Next, `CC(C)C[C@H](CO)Nc1nc(CC(C)c2ccc3c(c2)OCO3)nc(NS(C)(=O)=O)n1` (stereo partly drawn) [Example 108, N-(4-(2-(Benzo[d][1,3]dioxol-5-yl)propyl)-6-(((R)-1-hydroxy-4-methylpentan-2-yl)amino)-1,3,5-triazin-2-yl)methanesulfonamide]: 58 nM; `CC(C)C[C@H](CO)Nc1nc(CC(C)c2cccc3c(=O)n(C)cnc23)nc(NS(C)(=O)=O)n1` (stereo partly drawn) [Example 109, N-(4-(((R)-1-Hydroxy-4-methylpentan-2-yl)amino)-6-(2-(3-methyl-4-oxo-3,4-dihydroquinazolin-8-yl)propyl)-1,3,5-triazin-2-yl)methanesulfonamide]: 84 nM; `CC(C)C[C@H](CO)Nc1nc(CC(C)c2cc(F)c(CO)c(F)c2)nc(NS(C)(=O)=O)n1` (stereo partly drawn) [Example 110, N-(4-(2-(3,5-Difluoro-4-(hydroxymethyl)phenyl)propyl)-6-(((R)-1-hydroxy-4-methylpentan-2-yl)amino)-1,3,5-triazin-2-yl)methanesulfonamide]: 34 nM.
The value for `Cc1cc(C(C)Cc2nc(N[C@@H](CO)CC(C)C)nc(NS(C)(=O)=O)n2)ccc1F` (stereo partly drawn) [Example 111, N-(4-(2-(4-Fluoro-3-methylphenyl)propyl)-6-(((R)-1-hydroxy-4-methylpentan-2-yl)amino)-1,3,5-triazin-2-yl)methanesulfonamide] was 391 nM; that for `CC(C)C[C@H](CO)Nc1nc(CC(C)c2ccc(N)cc2)nc(NS(C)(=O)=O)n1` (stereo partly drawn) [Example 112, N-(4-(2-(4-Aminophenyl)propyl)-6-(((R)-1-hydroxy-4-methylpentan-2-yl)amino)-1,3,5-triazin-2-yl)methanesulfonamide] was 29 nM; that for `COc1ccc(C(C)Cc2nc(N[C@@H](CO)CC(C)C)nc(NS(C)(=O)=O)n2)cc1` (stereo partly drawn) [Example 113, N-(4-(((R)-1-Hydroxy-4-methylpentan-2-yl)amino)-6-(2-(4-methoxyphenyl)propyl)-1,3,5-triazin-2-yl)methanesulfonamide] was 184 nM.
The value for `Cc1ccc(C(C)Cc2nc(N[C@@H](CO)CC(C)C)nc(NS(C)(=O)=O)n2)cc1N` (stereo partly drawn) [Example 114, N-(4-(2-(3-Amino-4-methylphenyl)propyl)-6-(((R)-1-hydroxy-4-methylpentan-2-yl)amino)-1,3,5-triazin-2-yl)methanesulfonamide] was 45 nM; that for `CC(C)C[C@H](CO)Nc1nc(CC(C)c2ccc(OCCN3CCOCC3)cc2)nc(NS(C)(=O)=O)n1` (stereo partly drawn) [Example 115, N-(4-(((R)-1-Hydroxy-4-methylpentan-2-yl)amino)-6-(2-(4-(2-morpholinoethoxy)phenyl)propyl)-1,3,5-triazin-2-yl)methanesulfonamide] was 160 nM.
Regarding `CC(C)C[C@H](CO)Nc1nc(CC(C)c2ccc(C(=O)N(C)C)c(F)c2)nc(NS(C)(=O)=O)n1` (stereo partly drawn) [Example 116, 2-Fluoro-4-(1-(4-(((R)-1-hydroxy-4-methylpentan-2-yl)amino)-6-(methylsulfonamido)-1,3,5-triazin-2-yl)propan-2-yl)-N,N-dimethylbenzamide], the IC50 amounted to 282 nM.
Next, `CC(C)C[C@H](CO)Nc1nc(CC(C)c2cnc3c(ccn3C)c2)nc(NS(C)(=O)=O)n1` (stereo partly drawn) [Example 117, N-(4-(((R)-1-Hydroxy-4-methylpentan-2-yl)amino)-6-(2-(1-methyl-1H-pyrrolo[2,3-b]pyridin-5-yl)propyl)-1,3,5-triazin-2-yl)methanesulfonamide]: 78 nM; `CC(C)C[C@H](CO)Nc1nc(CC(C)c2ccc(N3CCOCC3=O)cc2)nc(NS(C)(=O)=O)n1` (stereo partly drawn) [Example 118, N-(4-(((R)-1-Hydroxy-4-methylpentan-2-yl)amino)-6-(2-(4-(3-oxomorpholino)phenyl)propyl)-1,3,5-triazin-2-yl)methanesulfonamide]: 150 nM; `CCOc1ccc(C(C)Cc2nc(N[C@@H](CO)CC(C)C)nc(NS(C)(=O)=O)n2)cc1F` (some centres unmarked) [Example 119]: 335 nM.
The value for `CNC(=O)c1ccc(C(C)Cc2nc(N[C@@H](CO)CC(C)C)nc(NS(C)(=O)=O)n2)cc1F` (stereo partly drawn) [Example 120, 2-Fluoro-4-(1-(4-(((R)-1-hydroxy-4-methylpentan-2-yl)amino)-6-(methylsulfonamido)-1,3,5-triazin-2-yl)propan-2-yl)-N-methylbenzamide] was 230 nM; that for `CC(C)C[C@H](CO)Nc1nc(CC(C)c2cccc(N)c2)nc(NS(C)(=O)=O)n1` (stereo partly drawn) [Example 121, N-(4-(2-(3-Aminophenyl)propyl)-6-(((R)-1-hydroxy-4-methylpentan-2-yl)amino)-1,3,5-triazin-2-yl)methanesulfonamide] was 21 nM.
Compound `CC(C)C[C@H](CO)Nc1nc(CC(C)c2ccc(F)c(CO)c2)nc(NS(C)(=O)=O)n1` (stereo partly drawn) [Example 122, N-(4-(2-(4-Fluoro-3-(hydroxymethyl)phenyl)propyl)-6-(((R)-1-hydroxy-4-methylpentan-2-yl)amino)-1,3,5-triazin-2-yl)methanesulfonamide] gave an IC50 of 120 nM.
Next, `CCOc1ccc(C(C)Cc2nc(N[C@@H](CO)CC(C)C)nc(NS(C)(=O)=O)n2)cc1` (stereo partly drawn) [Example 123, N-(4-(2-(4-Ethoxyphenyl)propyl)-6-(((R)-1-hydroxy-4-methylpentan-2-yl)amino)-1,3,5-triazin-2-yl)methanesulfonamide]: 339 nM.
Next, `CC(C)C[C@H](CO)Nc1nc(CC(C)c2ccc3ncn(C)c(=O)c3c2)nc(NS(C)(=O)=O)n1` (stereo partly drawn) [Example 124, N-(4-(((R)-1-Hydroxy-4-methylpentan-2-yl)amino)-6-(2-(3-methyl-4-oxo-3,4-dihydroquinazolin-6-yl)propyl)-1,3,5-triazin-2-yl)methanesulfonamide]: 126 nM.
The value for `CC(C)C[C@H](CO)Nc1nc(CC(C)c2cnc3c(c2)OCC(=O)N3C)nc(NS(C)(=O)=O)n1` (stereo partly drawn) [Example 125, N-(4-(((R)-1-Hydroxy-4-methylpentan-2-yl)amino)-6-(2-(4-methyl-3-oxo-3,4-dihydro-2H-pyrido[3,2-b][1,4]oxazin-7-yl)propyl)-1,3,5-triazin-2-yl)methanesulfonamide] was 85 nM.
Turning to `CC(C)C[C@H](CO)Nc1nc(CC(C)c2ccc3c(=O)n(C)cnc3c2)nc(NS(C)(=O)=O)n1` (stereo partly drawn) [Example 126, N-(4-(((R)-1-Hydroxy-4-methylpentan-2-yl)amino)-6-(2-(3-methyl-4-oxo-3,4-dihydroquinazolin-7-yl)propyl)-1,3,5-triazin-2-yl)methanesulfonamide], the IC50 was found to be 257 nM.
Next, `CC(C)C[C@H](CO)Nc1nc(CC(C)c2ccc(OC(F)F)nc2)nc(NS(C)(=O)=O)n1` (stereo partly drawn) [Example 127, N-(4-(2-(6-(Difluoromethoxy)pyridin-3-yl)propyl)-6-(((R)-1-hydroxy-4-methylpentan-2-yl)amino)-1,3,5-triazin-2-yl)methanesulfonamide]: 354 nM; `CC(C)C[C@H](CO)Nc1nc(CC(C)c2ccc3c(c2)CC(=O)N(C)C3)nc(NS(C)(=O)=O)n1` (stereo partly drawn) [Example 128, N-(4-(((R)-1-Hydroxy-4-methylpentan-2-yl)amino)-6-(2-(2-methyl-3-oxo-1,2,3,4-tetrahydroisoquinolin-6-yl)propyl)-1,3,5-triazin-2-yl)methanesulfonamide]: 241 nM; `CC(C)C[C@H](CO)Nc1nc(CC(C)c2ccc3c(c2)OCC(=O)N3C)nc(NS(C)(=O)=O)n1` (stereo partly drawn) [Example 129, N-(4-(((R)-1-Hydroxy-4-methylpentan-2-yl)amino)-6-(2-(4-methyl-3-oxo-3,4-dihydro-2H-benzo[b][1,4]oxazin-7-yl)propyl)-1,3,5-triazin-2-yl)methanesulfonamide]: 169 nM.
The value for `CC(C)C[C@H](CO)Nc1nc(CC(C)c2ccc3c(c2)CN(C)C(=O)C3)nc(NS(C)(=O)=O)n1` (stereo partly drawn) [Example 130, N-(4-(((R)-1-Hydroxy-4-methylpentan-2-yl)amino)-6-(2-(2-methyl-3-oxo-1,2,3,4-tetrahydroisoquinolin-7-yl)propyl)-1,3,5-triazin-2-yl)methanesulfonamide] was 79 nM.
Next, `Cc1ncc(C(C)Cc2nc(N[C@@H](CO)CC(C)C)nc(NS(C)(=O)=O)n2)cc1N` (stereo partly drawn) [Example 131, N-(4-(2-(5-Amino-6-methylpyridin-3-yl)propyl)-6-(((R)-1-hydroxy-4-methylpentan-2-yl)amino)-1,3,5-triazin-2-yl)methanesulfonamide]: 639 nM; `CC(C)C[C@H](CO)Nc1nc(CC(C)c2ccc(CCO)nc2)nc(NS(C)(=O)=O)n1` (stereo partly drawn) [Example 132, N-(4-(((R)-1-Hydroxy-4-methylpentan-2-yl)amino)-6-(2-(6-(2-hydroxyethyl)pyridin-3-yl)propyl)-1,3,5-triazin-2-yl)methanesulfonamide]: 264 nM.
